In general, inhibition refers to how much of the control response was suppressed. What is called inhibition in vivo is the share of the control response that was lost under treatment. Read a high inhibition in vivo as strong suppression.

Calls of active or inactive are those of the source. No cut-off for these calls is given here.

The source of these data is ChEMBL document CHEMBL1158974, “Iridoids: a new class of leishmanicidal agents from Nyctanthes arbortristis” (J Nat Prod, 1991).

For series [1], the system named is Leishmania donovani. Briefly: Antileishmanial activity against Leishmania donovani HOM/IN/80/Dd8 amastigotes infected in Sigmodon hispidus peritoneal macrophages assessed as reduction in infected macrophages at 30 ug/ml. Type of series: functional. The conditions noted are these: for inhibition at 30 µg/mL: HOM/IN/80/Dd8, in Sigmodon hispidus.
The test system of series [2] is Leishmania donovani. Briefly: Antileishmanial activity against Leishmania donovani HOM/IN/80/Dd8 amastigotes infected in Sigmodon hispidus peritoneal macrophages assessed as reduction in average number of amastigotes per infected macrophage at 30 ug/ml. It is filed as functional. The conditions noted are these: for inhibition at 30 µg/mL: HOM/IN/80/Dd8, in Sigmodon hispidus.

Series [3] can be described thus: Cytotoxicity against Sigmodon hispidus peritoneal macrophages at 60 ug/ml. The conditions noted are these: peritoneal macrophage cell. Type of series: cell-based.
In series [4] the test system is Leishmania donovani. As to the kind of experiment: Antileishmanial activity against Leishmania donovani HOM/IN/80/Dd8 amastigotes infected in Mesocricetus auratus at 10 mg/kg, ip administered daily for 5 days measured after 7 days. It is filed as functional. The conditions noted are these: for inhibition in vivo at 10 mg/kg: HOM/IN/80/Dd8, in Mesocricetus auratus, route intraperitoneal.

In series [5] the test system is Leishmania donovani. As to the kind of experiment: Antileishmanial activity against Leishmania donovani HOM/IN/80/Dd8 amastigotes infected in Mesocricetus auratus assessed as survival days at 10 mg/kg, ip administered daily for 5 days. Type of series: functional.
The subject of series [6] is Leishmania donovani. Briefly: Antileishmanial activity against Leishmania donovani HOM/IN/80/Dd8 amastigotes infected in Sigmodon hispidus peritoneal macrophages assessed as reduction in infected macrophages at 100 ug/ml. It is filed as functional.
The test system of series [7] is Leishmania donovani. As to the kind of experiment: Antileishmanial activity against Leishmania donovani HOM/IN/80/Dd8 amastigotes infected in Sigmodon hispidus peritoneal macrophages assessed as reduction in average number of amastigotes per infected macrophage at 100 ug/ml. Type of series: functional.
Series [8] has as its system Leishmania donovani. As to the kind of experiment: Antileishmanial activity against Leishmania donovani HOM/IN/80/Dd8 amastigotes infected in Mesocricetus auratus at 10 mg/kg, ip administered daily for 5 days measured after 28 days. Type of series: functional.
In series [9] the test system is Leishmania donovani. Briefly: Antileishmanial activity against Leishmania donovani HOM/IN/80/Dd8 amastigotes infected in Mesocricetus auratus at 100 mg/kg, po administered daily for 5 days. Type of series: functional. The conditions noted are these: HOM/IN/80/Dd8, in Mesocricetus auratus, 120 h.
The test system of series [10] is Leishmania donovani. As to the kind of experiment: Antileishmanial activity against Leishmania donovani HOM/IN/80/Dd8 amastigotes infected in Sigmodon hispidus peritoneal macrophages assessed as reduction in infected macrophages at 60 ug/ml. The conditions noted are these: HOM/IN/80/Dd8, in Sigmodon hispidus. It is filed as functional.
In series [11] the test system is Leishmania donovani. As to the kind of experiment: Antileishmanial activity against Leishmania donovani HOM/IN/80/Dd8 amastigotes infected in Sigmodon hispidus peritoneal macrophages assessed as reduction in average number of amastigotes per infected macrophage at 60 ug/ml. It is filed as functional. The following applies: HOM/IN/80/Dd8, in Sigmodon hispidus.
The subject of series [12] is Leishmania donovani. As to the kind of experiment: Antileishmanial activity against Leishmania donovani HOM/IN/80/Dd8 amastigotes assessed as minimum effective dose. It is filed as functional, organism-based.
The mark [13] stands for this setting: HOM/IN/80/Dd8, in Sigmodon hispidus.

As to `COC(=O)C1=CO[C@@H](O[C@@H]2O[C@H](CO)[C@@H](O)[C@H](O)[C@H]2O)[C@@H]2[C@@H](C)[C@@H](O)[C@@H](O)[C@H]12`, the inhibition at 30 µg/mL amounted to 42.2% in the series with Leishmania donovani [1] and 65.8% in the series with Leishmania donovani [2]. Moreover, the Activity result in series [3] was “Toxic”. In addition, testing at 10 mg/kg with Leishmania donovani [4] gave an inhibition in vivo of 30.8%. The Survival with Leishmania donovani [5] (route intraperitoneal) is under 28 days.
On to `COC(=O)C1=CO[C@@H](O[C@@H]2O[C@H](CO)[C@@H](O)[C@H](O)[C@H]2O)[C@@H]2[C@@H](C)[C@@H](OC(=O)/C=C/c3ccc(OC)cc3)[C@@H](O)[C@H]12` [ARBORTRISTOSIDE A], for which the values for the inhibition at 30 µg/mL with Leishmania donovani [1] and in the series on Leishmania donovani [2] were 7.13% and 45.8%, respectively. The inhibition at 100 µg/mL in the series on Leishmania donovani [6] (setting [13]) was 30.2%; in the series with Leishmania donovani [7] (setting [13]), 64.6%. Besides, the inhibition in vivo at 10 mg/kg with Leishmania donovani [4] is 18.2%; in the series on Leishmania donovani [8] (HOM/IN/80/Dd8, in Mesocricetus auratus, route intraperitoneal) it was 79.7%. The inhibition in vivo at 100 mg/kg in the series on Leishmania donovani [9] was found to be 57%. Further, the Survival with Leishmania donovani [5] (route intraperitoneal) stood at 38 days.
Turning to `COC(=O)C1=CO[C@@H](O[C@@H]2O[C@H](CO)[C@@H](O)[C@H](O)[C@H]2O)[C@@H]2[C@@H](CO)[C@@H](OC(=O)/C=C/c3ccc(O)c(O)c3)[C@@H](O)[C@H]12` [ARBORTRISTOSIDE B], the inhibition at 30 µg/mL was 28.1% with Leishmania donovani [1] and 25.1% in the series with Leishmania donovani [2]. The figures for the inhibition at 60 µg/mL in the series with Leishmania donovani [10] and with Leishmania donovani [11] were 41.7% and 47.3%, respectively. The inhibition entry in the series on Leishmania donovani [4] and with Leishmania donovani [8] was “inactive” each time. In addition, the Survival in the series on Leishmania donovani [5] (route intraperitoneal) came to 59 days.
On to `COC(=O)C1=CO[C@@H](O[C@@H]2O[C@H](CO)[C@@H](O)[C@H](O)[C@H]2O)[C@@H]2[C@@H](C)[C@@H](OC(=O)/C=C/c3ccc(O)cc3)[C@@H](O)[C@H]12` [ARBORTRISTOSIDE C], for which the results for the inhibition at 30 µg/mL in the series with Leishmania donovani [1] and with Leishmania donovani [2] were 39.9% and 67.4%, respectively. Further, the Activity entry in series [3] is on record as “Toxic”. Further, the inhibition result in the series with Leishmania donovani [4] is “inactive”. For the same compound, the Survival in the series on Leishmania donovani [5] (route intraperitoneal) was under 28 days.
For the compound sodium stibogluconate, the inhibition with Leishmania donovani [1] stood at 80%; in the series on Leishmania donovani [6], 100%; in the series with Leishmania donovani [2], 80%; in the series with Leishmania donovani [7], 100%; in the series with Leishmania donovani [4], 71.9%; in the series on Leishmania donovani [8], 93.5%. In addition, the MED with Leishmania donovani [12] stood at 10 mg/kg. Moreover, the Survival in the series on Leishmania donovani [5] was under 30 days.
